Measured values taken from patent US20220315567A1 (priority 2016, published 2022).
Like-named read-outs stand apart in the source and are kept apart here.

Columns and labels:
human OPRM1 (μ, MOR) [1] = biological target: T1, human OPRM1 (μ, MOR) (Homo sapiens, UniProt P35372); experiment: cell-based; details: for Emax: OPRM1, read-out: β-Arrestin Emax; for EC50: PathHunter human OPRM1 Arrestin CHO-K1 cell line, read-out: β-Arrestin EC50
T1 construct: host or cells: CHO-K1
In short: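 β-Arrestin-2 recruitment was measured in PathHunter CHO-K1 cells expressing ED-tagged human OPRM1 and EA-fused arrestin. Agonist-driven recruitment restores β-galactosidase activity by enzyme fragment complementation, read by chemiluminescence.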

human OPRM1 (μ, MOR) [2] = biological target: T1, human OPRM1 (μ, MOR); experiment: cell-based; details: for Emax: OPRM1, read-out: cAMP Emax; for EC50: PathHunter human OPRM1 Arrestin CHO-K1 cell line, read-out: cAMP EC50
Protocol: G-protein signaling was measured via second messenger cAMP modulation. Detection of cAMP modulation was accomplished in the PathHunter human OPRM1 (μ, MOR) Arrestin CHO-K1 cell line using the Dynamic2 cAMP Kit from Cisbio.

human OPRM1 (μ, MOR) [3] = biological target: T1, human OPRM1 (μ, MOR); assay type: cell-based; details: for ΔRA of compound: relative activity from EC50 and Emax of β-arrestin vs cAMP, lower RA = more G-protein biased
In short: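 Activity measured in cell assays for G-protein signaling and for β-arrestin recruitment. A relative activity (RA) value was derived by comparing the two readouts, taking both EC50 and Emax into account.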

[4] = patients following bunionectomy; cited from earlier work
[5] = healthy volunteers; cited from earlier work

T1 sequence (P35372 whole entry): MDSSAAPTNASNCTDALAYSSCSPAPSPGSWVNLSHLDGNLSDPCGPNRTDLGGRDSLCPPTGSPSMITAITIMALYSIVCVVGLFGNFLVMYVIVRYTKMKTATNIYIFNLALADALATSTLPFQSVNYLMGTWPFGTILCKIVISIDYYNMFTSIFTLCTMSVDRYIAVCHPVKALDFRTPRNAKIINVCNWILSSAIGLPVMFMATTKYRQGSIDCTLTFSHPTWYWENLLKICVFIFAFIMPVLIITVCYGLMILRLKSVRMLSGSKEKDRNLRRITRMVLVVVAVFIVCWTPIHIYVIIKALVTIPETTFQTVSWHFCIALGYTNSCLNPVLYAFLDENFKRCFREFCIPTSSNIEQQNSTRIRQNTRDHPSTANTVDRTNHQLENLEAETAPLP

CN(C)C1(CNC(=O)N2Cc3ccc(F)cc3C2)CCOCC1 [Compound 61]
Emax (human OPRM1 (μ, MOR) [1]): 14.5% | EC50 (human OPRM1 (μ, MOR) [1]): > 100000 nM | Emax (human OPRM1 (μ, MOR) [2]): 104% | EC50 (human OPRM1 (μ, MOR) [2]): 1170 nM | Bias Factor (ΔRA of compound relative to ΔRA of DAMGO) × 10 (human OPRM1 (μ, MOR) [3]): <−14.83 | ΔRA of compound (human OPRM1 (μ, MOR) [3]): <−2.96 | melting point: 241 to 243 °C

CN(C)C(C)(C)CNC(=O)N1Cc2ccc(F)cc2C1 [Compound 62]
Emax (human OPRM1 (μ, MOR) [1]): < 1% | EC50 (human OPRM1 (μ, MOR) [1]): > 100000 nM | Emax (human OPRM1 (μ, MOR) [2]): 81.8% | EC50 (human OPRM1 (μ, MOR) [2]): 21000 nM | Bias Factor (ΔRA of compound relative to ΔRA of DAMGO) × 10 (human OPRM1 (μ, MOR) [3]): <−14.83 | ΔRA of compound (human OPRM1 (μ, MOR) [3]): <−2.96 | melting point: 200 to 202 °C

CN(C)C1(CNC(=O)N[C@H]2CCc3ccccc3C2)CCCC1 [Compound 65]
Emax (human OPRM1 (μ, MOR) [1]): < 1% | EC50 (human OPRM1 (μ, MOR) [1]): > 100000 nM | Emax (human OPRM1 (μ, MOR) [2]): < 10% | EC50 (human OPRM1 (μ, MOR) [2]): > 100000 nM | melting point: 204 to 206 °C

CN(C)C(CNC(=O)N[C@@H]1CCc2ccccc2C1)c1ccsc1 (stereo partly shown) [Compound 66]
Bias Factor (ΔRA of compound relative to ΔRA of DAMGO) × 10 (human OPRM1 (μ, MOR) [3]): <−14.83 | ΔRA of compound (human OPRM1 (μ, MOR) [3]): <−2.96 | melting point: 164 to 166 °C

CN(C)C(CNC(=O)N[C@H]1CCc2ccccc2C1)c1ccsc1 (stereo partly shown) [Compound 67]
β-Arrestin Emax (human OPRM1 (μ, MOR) [1]): 2.6% | EC50 (human OPRM1 (μ, MOR) [1]): > 100000 nM | cAMP Emax (human OPRM1 (μ, MOR) [2]): 50.9% | EC50 (human OPRM1 (μ, MOR) [2]): 13 nM | Bias Factor (ΔRA of compound relative to ΔRA of DAMGO) × 10 (human OPRM1 (μ, MOR) [3]): <−14.83 | ΔRA of compound (human OPRM1 (μ, MOR) [3]): <−2.96 | melting point: 165 to 167 °C

COc1ccc(C(CNC(=O)N2CCCc3cc(F)ccc32)N(C)C)cc1 (stereo not shown) [Compound 68a]
Emax (human OPRM1 (μ, MOR) [1]): 39.9% | EC50 (human OPRM1 (μ, MOR) [1]): 14600 nM | Emax (human OPRM1 (μ, MOR) [2]): 94.6% | EC50 (human OPRM1 (μ, MOR) [2]): 167 nM | Bias Factor (ΔRA of compound relative to ΔRA of DAMGO) × 10 (human OPRM1 (μ, MOR) [3]): −8.36 | ΔRA of compound (human OPRM1 (μ, MOR) [3]): −2.32 | melting point: 145 to 146 °C

CN(C)[C@H](CCNC(=O)N[C@@H]1CCc2ccccc2C1)c1ccsc1 [Compound 71]
β-Arrestin Emax (human OPRM1 (μ, MOR) [1]): 10.5% | EC50 (human OPRM1 (μ, MOR) [1]): 1820 nM | cAMP Emax (human OPRM1 (μ, MOR) [2]): 71.2% | EC50 (human OPRM1 (μ, MOR) [2]): 177 nM | Bias Factor (ΔRA of compound relative to ΔRA of DAMGO) × 10 (human OPRM1 (μ, MOR) [3]): −3.66 | ΔRA of compound (human OPRM1 (μ, MOR) [3]): −1.85 | melting point: 112 to 114 °C

CN(C)[C@H](CCNC(=O)N[C@@H]1CCc2ccccc2C1)c1ccsc1 [Compound 72]
β-Arrestin Emax (human OPRM1 (μ, MOR) [1]): 39.1% | EC50 (human OPRM1 (μ, MOR) [1]): 2610 nM | cAMP Emax (human OPRM1 (μ, MOR) [2]): 111.9% | EC50 (human OPRM1 (μ, MOR) [2]): 197 nM | Bias Factor (ΔRA of compound relative to ΔRA of DAMGO) × 10 (human OPRM1 (μ, MOR) [3]): −0.99 | ΔRA of compound (human OPRM1 (μ, MOR) [3]): −1.58 | melting point: 147 to 149 °C

CN(C)[C@@H](CCNC(=O)N[C@@H]1CCc2ccccc2C1)c1ccsc1 [Compound 73]
Emax (human OPRM1 (μ, MOR) [1]): < 1% | EC50 (human OPRM1 (μ, MOR) [1]): > 100000 nM | Emax (human OPRM1 (μ, MOR) [2]): 13.6% | EC50 (human OPRM1 (μ, MOR) [2]): 422 nM | Bias Factor (ΔRA of compound relative to ΔRA of DAMGO) × 10 (human OPRM1 (μ, MOR) [3]): <−14.83 | ΔRA of compound (human OPRM1 (μ, MOR) [3]): <−2.96 | melting point: 147 to 148 °C

CN(C)[C@@H](CCNC(=O)N[C@H]1CCc2ccccc2C1)c1ccsc1 [Compound 74]
Emax (human OPRM1 (μ, MOR) [1]): < 1% | EC50 (human OPRM1 (μ, MOR) [1]): > 100000 nM | Emax (human OPRM1 (μ, MOR) [2]): 11.2% | EC50 (human OPRM1 (μ, MOR) [2]): > 100000 nM | melting point: 144 to 146 °C

COc1ccsc1CNCC[C@@]1(c2ccccn2)CCOC2(CCCC2)C1 [oliceridine, N-[(3-methoxythiophen-2-yl)methyl]-2-[(9R)-9-pyridin-2-yl-6-oxaspiro[4.5]decan-9-yl]ethanamine]
level of analgesia [4]: higher level of analgesia | on-target adverse effects (nausea, decrease in respiratory drive) [5]: decreased on-target adverse effects
